Source: patent publication US20140079632A1, “ACTIVITY-BASED PROBES FOR THE UROKINASE P[…]” (UNIVERSITEIT ANTWERPEN, priority 2011, published 2014)

What was measured:
Assay type in all cases: biochemical
uPA [1] = target: T1, uPA (Homo sapiens, UniProt P00749); assay: uPA inhibition: in vitro evaluation, IC50 with chromogenic substrate Biophen CS-61(44); conditions: 15 min preincubation at 37° C.; Tris buffer pH 8.8; 250 μM substrate
T1 construct: purchased Nodia
Description: Enzymatic activity was measured at 37° C. in a Spectramax 340 (Molecular Devices) microtiter plate reader using the chromogenic substrate Biophen CS-61(44) (LpyroGlu-Gly L-Arg-p-NA.HCl), with a Km of 80 μM.
(§1) The substrate and human enzyme were obtained from Nodia. The reaction was monitored at 405 nm, and the initial rate was determined between 0 and 0.25 absorbance units in 20 min. The reaction mixture contained 250 μM substrate and approximately 1 mU of enzyme in 145 μL of buffer in a final volume of 200 μL. A 50 mM Tris buffer, pH 8.8, was used. From each inhibitor concentration, 5 μL was added, obtaining a final concentration from 0 to 250 μM in a total volume of 0.2 mL. Activity measurements were routinely performed in duplicate. […] IC50 values were obtained by fitting the data with the four-parameter logistics equation using Grafit 5.
where s=slope factor, v=rate, I0=inhibitor concentration, and range=the fitted uninhibited value minus the background. The equation assumes the y falls with increasing x.
(§2) Inhibitor stock solutions were prepared in DMSO and stored at −20° C. Because the compounds described in this paper completely inactivate uPA following pseudofirst-order kinetics, the IC50 value is inversely correlated with the second-order rate constant of inactivation. For a simple pseudofirst-order inactivation process, the activity after incubation with inhibitor (vi) varies with the inhibitor concentration (i), as described in the following equation: […]

uPA [2] = target: T1, uPA; assay: uPA inactivation kinetics from progress curves (kobs versus inhibitor concentration, kapp); conditions: 250 μM substrate, 37° C.
Description: as §2
where vo is the activity in absence of inhibitor, k is the second-order rate constant of inactivation, and t is the time. The inactivation rate constant was determined from the time course of inhibition.
The inhibitor was mixed with the substrate (250 μM final concentration), and the buffer solution with the enzyme was added at the time zero. The inhibitor concentrations were chosen to obtain total inhibition of the enzyme within 20 min. The progress curves show the absorbance of p-nitroanilide produced as a function of time. Initially, no inhibitor is bound to the enzyme, and the tangent to the progress curve (dA/dt) is proportional to the concentration of the free enzyme. The concentration of free enzyme decreases over time due to the kinetics of inhibitor binding, as described above. Progress curves were recorded in pseudofirst-order conditions ([I]0>>[E]0) and with less than 10% conversion of the substrate during the entire time course. In these conditions, dA/dt decreases exponentially with time. The progress curves were fitted with the integrated rate equation to yield a value for kobs, a pseudofirst-order rate constant
At=v0[1−e^−k^obs^t]/kobs+A0
where At=absorbance at time t, A0=absorbance at time zero, and v0=uninhibited initial rate.
The apparent second-order rate constant (kapp) was calculated from the slope of the linear part of the plot of kobs versus the inhibitor concentration ([I]0). In case of competition between the inhibitor and the substrate, kapp is smaller than the “real” second order rate constant k discussed above because a certain fraction of the enzyme is present as an enzyme-substrate complex. kapp depends on the substrate concentration used in the experiment, as described by Lambeir et al.^40 For most final compounds, the kobs versus [I]0 plot was not linear, but could be fitted with a hyperbolic function: kobs=k2[I]0/(K1+[I]0) (two step mechanism). Where K1 is the dissociation constant of the reversible enzyme-inhibitor complex and k2 is the first-order rate constant associated with irreversible modification of the enzyme. A kapp could be calculated as k2/K1.

tPA (recombinant) = target: T2, tPA (recombinant) (Homo sapiens, UniProt P00750); assay: Selectivity: tPA inhibition, substrate Biophen CS-05(88); conditions: 15 min preincubation; Tris buffer pH 8.3; 1.25 mM substrate
T2 construct: purchased Nodia
T2 sequence (P00750 36-562, species assumed): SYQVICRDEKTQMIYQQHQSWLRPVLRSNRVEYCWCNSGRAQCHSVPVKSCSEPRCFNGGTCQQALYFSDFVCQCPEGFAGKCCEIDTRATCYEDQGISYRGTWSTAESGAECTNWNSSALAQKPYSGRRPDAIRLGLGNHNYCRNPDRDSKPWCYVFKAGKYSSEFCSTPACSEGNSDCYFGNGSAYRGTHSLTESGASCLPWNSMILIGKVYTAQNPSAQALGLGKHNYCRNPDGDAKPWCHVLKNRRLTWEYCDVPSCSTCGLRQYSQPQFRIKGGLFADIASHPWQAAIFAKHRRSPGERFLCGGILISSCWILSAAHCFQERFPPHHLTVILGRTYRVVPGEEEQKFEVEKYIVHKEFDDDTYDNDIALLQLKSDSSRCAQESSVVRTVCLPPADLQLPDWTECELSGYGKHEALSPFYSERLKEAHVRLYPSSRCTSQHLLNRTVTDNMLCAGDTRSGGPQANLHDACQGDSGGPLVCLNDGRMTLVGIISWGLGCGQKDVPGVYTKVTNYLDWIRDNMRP
Description: as §1, with “The reaction mixture contained 250 μM substrate and approximately 1 mU of enzyme in 145 μL of buffer in a final volume of 200 μL.” left out
(§3) The IC50 values for plasmin (from human plasma, Sigma), tPA (recombinant, Nodia), thrombin (from human plasma, Sigma), and FXa were determined in the same way as for uPA.
(§4) For tPA and thrombin, Tris buffer, pH 8.3, was used, for FXa, Tris buffer, pH 8.3, for plasmin, Tris buffer, pH 7.4, was used.

[3] = target: T3, thrombin (from human plasma) (Homo sapiens, UniProt P00734); assay: Selectivity: thrombin inhibition, substrate Biophen CS-21(66); conditions: 15 min preincubation; Tris buffer pH 8.3; 580 μM substrate
T3 construct: thrombin (from human plasma, Sigma); purchased Sigma; host or cells: human plasma
Description: as §1, with “The reaction mixture contained 250 μM substrate and approximately 1 mU of enzyme in 145 μL of buffer in a final volume of 200 μL.” left out
as §3, §4

[4] = target: T4, plasmin (from human plasma) (Homo sapiens, UniProt P00747); assay: Selectivity: plasmin inhibition, substrate Biophen CS-21(66); conditions: 15 min preincubation; Tris buffer pH 7.4; 580 μM substrate
T4 construct: purchased Sigma; host or cells: human plasma
T4 sequence (P00747 581-810 limits assumed): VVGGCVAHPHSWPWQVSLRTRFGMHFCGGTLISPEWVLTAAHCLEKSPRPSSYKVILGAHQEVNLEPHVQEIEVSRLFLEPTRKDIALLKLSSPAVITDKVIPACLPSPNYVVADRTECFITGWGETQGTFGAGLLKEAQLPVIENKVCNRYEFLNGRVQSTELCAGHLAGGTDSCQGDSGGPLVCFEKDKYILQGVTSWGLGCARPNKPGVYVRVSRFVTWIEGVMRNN
T4 sequence (P00747 97-580 partner limits assumed): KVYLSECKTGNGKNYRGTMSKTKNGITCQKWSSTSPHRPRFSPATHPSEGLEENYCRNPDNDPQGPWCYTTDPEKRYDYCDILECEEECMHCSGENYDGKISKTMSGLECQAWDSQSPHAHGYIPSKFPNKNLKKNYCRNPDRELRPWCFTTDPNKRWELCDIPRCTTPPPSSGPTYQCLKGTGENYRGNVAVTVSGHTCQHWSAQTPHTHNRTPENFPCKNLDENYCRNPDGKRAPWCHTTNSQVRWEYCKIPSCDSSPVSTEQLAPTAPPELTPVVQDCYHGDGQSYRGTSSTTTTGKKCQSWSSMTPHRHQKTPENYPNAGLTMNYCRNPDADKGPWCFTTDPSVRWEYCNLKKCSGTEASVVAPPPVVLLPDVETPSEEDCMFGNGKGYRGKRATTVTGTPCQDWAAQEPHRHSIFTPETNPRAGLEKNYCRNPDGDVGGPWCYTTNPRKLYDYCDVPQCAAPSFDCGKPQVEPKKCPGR
Description: as §1, with “The reaction mixture contained 250 μM substrate and approximately 1 mU of enzyme in 145 μL of buffer in a final volume of 200 μL.” left out
as §3, §4

FXa = FXa (Homo sapiens, UniProt P00742); assay: Selectivity: FXa inhibition, substrate Biophen CS-11(32)
FXa, sequence (P00742 235-488 limits assumed): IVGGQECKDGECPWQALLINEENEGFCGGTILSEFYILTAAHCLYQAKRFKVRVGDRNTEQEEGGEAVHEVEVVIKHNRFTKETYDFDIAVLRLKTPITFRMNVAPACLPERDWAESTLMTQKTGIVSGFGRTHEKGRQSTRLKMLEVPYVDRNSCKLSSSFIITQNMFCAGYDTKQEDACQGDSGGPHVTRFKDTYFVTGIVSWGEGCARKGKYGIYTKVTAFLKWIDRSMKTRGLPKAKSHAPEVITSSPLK
FXa, sequence (P00742 41-179 partner limits assumed): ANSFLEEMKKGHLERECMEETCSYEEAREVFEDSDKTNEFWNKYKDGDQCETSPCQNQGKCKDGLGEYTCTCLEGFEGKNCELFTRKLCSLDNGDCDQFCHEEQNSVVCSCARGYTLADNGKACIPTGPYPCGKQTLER

Row | SMILES | IC50 (uPA [1]) [µM] | uPA: kapp (uPA [2]; apparent second-order rate constant from slope of kobs versus [I]0, no asterisk) [M⁻¹ s⁻¹] | IC50 (tPA (recombinant)) [µM] | IC50 [3] [µM] | IC50 [4] [µM] | IC50 (FXa; 15 min preincubation, Tris buffer pH 8.3, 522 μM substrate) [µM] | uPA: kapp (uPA [2]; asterisked: compound showed a two-step mechanism, kapp calculated as k2/K1) | FXa % (I) @ 250 (FXa; at 250 (μM)) [% @ 250]
1 | CCN(CC)c1ccc2c(-c3ccccc3C(=O)N3CCN(C(=O)CCCCCCCn4cc(COCCOCCOCCOC(=O)NC(Cc5ccc(NC(=N)N)cc5)P(=O)(Oc5ccccc5)Oc5ccccc5)nn4)CC3)c3ccc(=[N+](CC)CC)cc-3oc2c1 (stereo not drawn) [Final compound 3, 2,2,2-trifluoroacetic acid, N-(6-(diethylamino)-9-(2-(4-(8-(4-(14-(diphenoxyphosphoryl)-15-(4-guanidinophenyl)-12-oxo-2,5,8,11-tetraoxa-13-azapentadecyl)-1H-1,2,3-triazol-1-yl)octanoyl)piperazine-1-carbonyl)phenyl)-3H-xanthen-3-ylidene)-N-ethylethanaminium chloride] | 0.03 ± 0.006 | 2600 ± 200 | 42 ± 5 | 13.8 ± 1.3 | 11 ± 4 | 39 ± 22 |  | 
2 | C#CCOCCOC(=O)NC(Cc1ccc(NC(=N)N)cc1)P(=O)(Oc1ccccc1)Oc1ccccc1.O=C(O)C(F)(F)F (stereo not drawn) [Intermediate 55, 2-(prop-2-ynyloxy)ethyl 1-(diphenoxyphosphoryl)-2-(4-guanidinophenyl)ethyl carbamate 2,2,2-trifluoroacetate] | 0.0088 ± 0.0008 |  | 66 ± 13 | 33 ± 4 | 11 ± 1 |  | 19 × 10^3 ± 4 × 10^3 * M^−1 s^−1 | 50
